Results as given in patent publication US20260176628A1, “TARGETED EPIGENETIC EDITING AS NOVEL THERAPY FOR MALIGNANT GLIOMA” (The Regents of the University of California, priority 2022, published 2026).

Legend:
MGMT CpG island = test: Bisulfite sequencing (BiSEQ) of TA clones; assay type: cell-based, human; details: for location of methylated CpG sites: LN18 dCas9-DNMT3A-CD/sgRNA clones, Region 1 (sgRNA4) or Region 2 (sgRNA1, 2, 3)
Source text: FIG. 2 Bisulfite sequencing of representative clones with induced methylation patterns of CpG sites at CRISPR-targeted regions within the MGMT CpG island. (a) Map of MGMT CpG island, 762 bp in length, encompassing promoter, exon 1, enhancer, and intron 1 regions. Comprehensive map of the MGMT gene with superimposed locations of Illumina probes (yellow boxes) as well as exon (salmon), intron (purple), and promoter/upstream (gray) regions. Locations of complementary sequences to the four sgRNAs are as shown. Open star, half-closed star and closed star regions indicate locations of differentially methylated Illumina probes. F1/R1 and F2/R2 indicate nested PCR primer pairs for Region 1 and Region 2, respectively. Inset: MGMT CpG island (individual CpG sites in light green) and relative locations of Region 1 and Region 2. CpG sites 22, 57, 72, and 96 indicate the specific sites flanking each region, numbered in order from 5′ to 3′ within the CpG island. Differentially methylated regions are shown (DMR1 and DMR2), located within assayed Region 1 and 2, respectively. MSP region is also shown within DMR2. Genetic regions and positions on Chromosome 10 were determined using the UCSC genome browser (GRCh37/hg19 assembly) and the 850K array probe annotation file provided by Illumina. (b) Lollipop schematic illustrating the distribution of CpG methylation sites in each representative clonal population (red circle=methylated site; gray circle=unmethylated site). Genomic DNA from LN18 cells containing either dCas9-DNMT3A/non-specific sgRNA or dCas9-DNMT3A/sgRNAs underwent sodium bisulfite treatment, followed by nested PCR amplification. Amplicons of Region 1 and Region 2 were obtained separately and used to generate individual clones for each region via TA cloning. Abbreviations for individual clone nomenclature (e.g., “4-NSC1” vs. “13-NSC1”): “4”=Region containing sgRNA4 target sequence; “13”=Region containing sgRNA 1, 2, 3 target sequences. “NSC” vs. “SgR” indicates whether clone source was transfected with non-specific sgRNA or sgRNA1, 2, 3, 4. Numbers following NSC or SgR designation indicate individual clone numbers. Each row of the schematic (per category, NSC or SgR) represents a single clone. Regional CpG sites as per Malley et al (2011): DMR1=CpG 25-50; DMR2=CpG 73-90; MSP=CpG 76-87 (MSP-F=CpG 76-80; MSP-R=CpG 84-87). Core/minimal promoter=CpG 50-62; Enhancer=CpG 82-87. […] Blue arrows indicate CpG sites that are methylated (converted from T-G to C-G). Region 1 includes the sequence targeted by sgRNA4 (s4). Region 2 includes the sequence targeted by sgRNA 1, 2 and 3 (s1, s2, s3).
Bisulfite Sequencing. DNA was isolated using DNEasy Blood & Tissue Kit (Qiagen, Catalog #69506). Bisulfite conversion was accomplished using EZ DNA Methylation-Gold (Zymo Research, Catalog #D5005) per kit protocol. Nested PCR primers were used as follows: […]
Region 1: First PCR primer pair F4/R4; second PCR pair F5/R4.
Region 2: First PCR primer pair F1/R1; second PCR pair F1/SeqR.
Sequencing reactions were performed using BigDye Terminator v3.1 Cycle Sequencing Kit (ThermoFisher, Cat #433750) with sequencing primers (R4 primer=Region 1; SeqR primer=Region 2); samples were purified by PCR Clean-Up Performa Spin Columns (EdgeBio Cat #13266) and submitted for Sanger sequencing analysis (Laragen, Culver City, CA).
TA Cloning. Sodium bisulfite-treated genomic DNA underwent nested PCR as above, for either Region 1 or 2. […]

LN18 human glioma cells [1] = test: MTT survival assay, TMZ sensitivity; assay type: cell-based; details: TMZ 25 μM or 100 μM, 5 days, vs DMSO
Method: FIG. 4 Effects of dCas9-DNMT3A-CD/MGMT-specific sgRNA targeted methylation on the sensitivity of glioma cells to temozolomide. […] Negative control: LN18 NSC cells. The “n” indicates the number of separate experiments performed for each cell type. Results were normalized to the average negative control treatment condition (drug vehicle DMSO). TMZ concentrations ranged from 25 µM to 100 µM. Horizontal bars for all figures represent post hoc Tukey's multiple comparisons test results for groups of interest following two-way ANOVA (“ns” indicates “p>0.05”; * indicates p<0.05; ** indicates p<0.01; *** indicates p<0.001; **** indicates p<0.0001). (a) TMZ sensitivity measured via MTT survival assays in LN18 cells co-expressing dCas9-DNMT3A-CD (d3A) and MGMT-targeting sgRNAs (sg1, 2, 3, 4) compared to NSC lines. […] MTT cell survival was calculated by subtracting […] for TMZ-treated cells (25 µM and 100 µM, 5 days) versus DMSO treatment control condition, followed by normalization to the average control condition.
Cell Survival Assays. […] Formazan product was extracted by cell lysis with DMSO (300 μL) and measured (560 nm absorbance with background subtraction of 660 nm). […]

LN18 human glioma cells [2] = test: Clonogenic assay, TMZ sensitivity; assay type: cell-based; details: TMZ 12 days total treatment, vs DMSO
MGMT = molecular target: T1, MGMT (Homo sapiens, UniProt P16455); details: Phase II clinical trial, cited from earlier work
T1 construct: host or cells: patients (clinical trial)
T1 sequence (P16455 1-207): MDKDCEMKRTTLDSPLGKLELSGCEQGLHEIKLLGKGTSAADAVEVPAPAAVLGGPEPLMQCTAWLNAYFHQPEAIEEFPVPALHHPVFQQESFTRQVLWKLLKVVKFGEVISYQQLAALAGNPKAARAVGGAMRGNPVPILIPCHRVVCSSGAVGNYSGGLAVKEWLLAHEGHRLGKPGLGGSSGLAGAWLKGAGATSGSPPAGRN

Compound: 5′-AGGCGCCCTCACTTCGCCGT-3′ (guide (5'-AGGCGCCCTCACTTCGCCGT-3'; as printed in the source, key not given here) [sgRNA2]
- location of methylated CpG sites (MGMT CpG island): CpG 77, 81-89

Compound: 5′-AGGGCATGCGCCGACCCGGT-3′ (guide (5'-AGGGCATGCGCCGACCCGGT-3'; as printed in the source, key not given here) [sgRNA4]
- location of methylated CpG sites (MGMT CpG island): CpG 22-38
- methylation radius upstream from sgRNA (MGMT CpG island; Region 1, to upstream 5′ limit of amplicon (CpG 22)): 20 bp

Compound: 5′-CTTTGCGTCCCGACGCCCGC-3′ (guide (5'-CTTTGCGTCCCGACGCCCGC-3'; as printed in the source, key not given here) [sgRNA3]
- location of methylated CpG sites (MGMT CpG island): CpG 77, 81-89

Compound: 5′-GGTGCGCACCGTTTGCGACT-3′ (guide (5'-GGTGCGCACCGTTTGCGACT-3'; as printed in the source, key not given here) [sgRNA1]
- location of methylated CpG sites (MGMT CpG island): CpG 77, 81-89

Compound: 5′-GTATTACTGATATTGGTGGG-3′ (chemistry not given here) [NSC]
- TMZ sensitivity (MTT survival) (LN18 human glioma cells [1]): Essentially no TMZ sensitivity
- TMZ sensitivity (clonogenic survival) (LN18 human glioma cells [2]): Essentially no TMZ sensitivity

Compound: Nc1nc(OCc2ccccc2)c2nc[nH]c2n1 [O-6-benzylguanine]
- clinical benefit (MGMT): limited benefits
- toxicity (MGMT; including off-target bone marrow suppression): severe dose-limiting toxicities
